The values below come from patent US10464896B2, “Efflux-pump inhibitors and therapeutic uses thereof” (Basilea Pharmaceutica International AG, priority 2015, dated 2019).

For one test, the system named is E. coli ATCC25922. Kind of test: Antibacterial activity in combination with minocycline (growth inhibition). Format: cell-based. As to conditions: Escherichia coli, ATCC25922, compound at 25 μM; minocycline 0.25 μg/mL; OD625 23 h minus 1 h; read-out: residual growth of E. coli ATCC25922 (% of uninhibited control) with minocycline. The procedure:
Antibacterial activity in combination with minocycline or with linezolid
Inhibition of growth was measured with E. coli ATCC25922 and P. aeruginosa PAO1 in a 96-well plate format. Cation-adjusted Müller-Hinton broth (caMHB) was inoculated with an overnight culture and incubated at 37° C. on a shaker until OD625 reached 0.6 to 0.7. Density was adjusted to OD600=0.5 by addition of caMHB. 35 μL of the suspension were diluted to 35 mL with caMHB and supplemented with minocycline at the subinhibitory doses of 0.25 μg/mL for E. coli and 8 μg/mL for P. aeruginosa or with linezolid at the subinhibitory dose of 128 μg/mL for E. coli and P. aeruginosa. Each well contained 1 μL of test compound in 100 μL caMHB with minocycline or with linezolid.
Plates were incubated at 37° C. on a plate shaker. OD625 was measured at 1 h, 6 h, and at 23 h.
The difference between OD at 23 h and at 1 h was taken as measure for cell density and compared to controls without inhibitor (i.e. uninhibited control). Results were expressed as residual growth (% of uninhibited control). Enhancement of minocycline or linezolid activity caused reduced residual growth.
Turning to `c1ccc(-c2ccc(COc3cccc(CNCC4CNC4)c3)cc2)cc1` [Example 95], the activity at 25 µM was at most 10%. The same measure, in the same setting: for `Clc1ccc(OCCOc2ccc(CNCC3CNC3)cc2)c(Br)c1` [Example 96] the value was at most 10%; for `Clc1ccc(COc2ccc(Br)c(CNCC3CNC3)c2)c(Br)c1` [Example 97], at most 10%; for `Fc1cc(CNCC2CNC2)cc(OCc2ccc(Cl)cc2Br)c1` [Example 103], at most 10%. In the case of `FC(F)(F)c1cc(CNCC2CNC2)cc(OCc2ccc(Cl)cc2Br)c1` [Example 104], the activity at 25 µM was at most 10%. Still for that read-out and setting: the figure for `CC(NCC1CNC1)c1ccc(OCc2ccc(Cl)cc2Br)cc1` (stereo not drawn) [Example 105] is at most 10%; for `C=CCOc1cc(CNCC2CNC2)cc(OCc2ccc(Cl)cc2Br)c1` [Example 106] it is at most 10%. The same measure, in the same setting: for `C=CCOc1cc(CNCC2CCNC2)cc(OCc2ccc(Cl)cc2Br)c1` (stereo not drawn) [Example 108] the value was at most 10%; for `C=CCOc1cc(CNCC2CCNCC2)cc(OCc2ccc(Cl)cc2Br)c1` [Example 109], at most 10%; for `Clc1ccc(COc2cccc(CCCNCC3CNC3)c2)c(Br)c1` [Example 111], at most 10%. Same read-out and setting: for `Clc1ccc(COc2cccc(CCCNCC3CCNC3)c2)c(Br)c1` (stereo not drawn) [Example 112] the value was at most 10%.

As to `Clc1ccc(COc2ccccc2CCCNCC2CNC2)c(Br)c1` [Example 113], the activity at 25 µM is at most 10%. Same read-out and setting: for `Clc1ccc(COc2ccccc2CCCNCC2CCNC2)c(Br)c1` (stereo not drawn) [Example 114] the value was at most 10%. Still for that read-out and setting: for `Clc1ccc(COc2ccc(CCCNCC3CNC3)cc2)c(Br)c1` [Example 116] the value was at most 10%. For the compound `Clc1ccc(COc2ccc(CCCNCC3CCNC3)cc2)c(Br)c1` (stereo not drawn) [Example 117], the activity at 25 µM was at most 10%.

In the case of `O=C(NCc1ccccc1)c1cc(CNCC2CNC2)cc(OCc2ccc(Cl)cc2Br)c1` [Example 119, 3-[(azetidin-3-ylmethylamino)methyl]-N-benzyl-5-[(2-bromo-4-chloro-phenyl)methoxy]-benzamide], the activity at 25 µM is at most 10%. Still for that read-out and setting: for `Brc1ccc(/C=C/c2ccccc2)cc1OCCCNCC1CNC1` [Example 120] the value was at most 10%; for `Clc1ccc(COc2cccc(CCNCC3CNC3)c2)c(Br)c1` [Example 121], at most 10%.

For the compound `Clc1ccc(COc2cccc(CCNCC3CCNC3)c2)c(Br)c1` (stereo not drawn) [Example 122], the activity at 25 µM was at most 10%. Still for that read-out and setting: for `Clc1ccc(COc2ccccc2CCNCC2CCNC2)c(Br)c1` (stereo not drawn) [Example 123] the value was at most 10%. The same measure, in the same setting: for `Clc1ccc(COc2ccccc2CCNCC2CNC2)c(Br)c1` [Example 125] the value was at most 10%; for `Clc1ccc(OCc2ccc(Br)c(OCCCNCC3CNC3)c2)c(Br)c1` [Example 126], at most 10%.

With `O=Cc1cc(CNCC2CNC2)cc(OCc2ccc(Cl)cc2Br)c1` [Example 127], the activity at 25 µM was at most 10%.

On to `OCc1cc(CNCC2CNC2)cc(OCc2ccc(Cl)cc2Br)c1` [Example 128], for which the activity at 25 µM was at most 10%.

For the compound `CCOC(=O)/C=C/c1cc(CNCC2CNC2)cc(OCc2ccc(Cl)cc2Br)c1` [Example 129, Ethyl (E)-3-[3-[(azetidin-3-ylmethylamino)methyl]-5-[(2-bromo-4-chloro-phenyl)methoxy]phenyl]prop-2-enoate], the activity at 25 µM is at most 10%. The same measure, in the same setting: the figure for `Clc1ccc(COc2cc(/C=C/c3ccco3)cc(CNCC3CNC3)c2)c(Br)c1` [Example 130, N-(azetidin-3-ylmethyl)-1-[3-[(2-bromo-4-chloro-phenyl)methoxy]-5-[(E)-2-(2-furyl)vinyl]phenyl]methanamine] is at most 10%; for `FC(F)(F)c1cc(Cl)ccc1COc1cccc(CNCC2CCNC2)c1` (stereo not drawn) [Example 132] it is at most 10%. For `Clc1ccc(CSc2ccc(CNCC3CNC3)cc2)c(Br)c1` [Example 133], the activity at 25 µM is at most 10%. On to `Clc1ccc(CSc2ccc(CNCC3CCNC3)cc2)c(Br)c1` (stereo not drawn) [Example 134], for which the activity at 25 µM is at most 10%. Same read-out and setting: for `Clc1ccc(CSc2cccc(CNCC3CCNC3)c2)c(Br)c1` (stereo not drawn) [Example 136, 1-[3-[(2-bromo-4-chloro-phenyl)methylsulfanyl]phenyl]-N-(pyrrolidin-3-ylmethyl)methanamine] the value was at most 10%; for `Clc1ccc(/C=C/c2ccc(CNCC3CNC3)cc2)c(Br)c1` [Example 142], at most 10%; for `Clc1ccc(/C=C/c2ccc(CNCC3CCNC3)cc2)c(Br)c1` (stereo not drawn) [Example 147], at most 10%.

For the compound `O=[N+]([O-])c1ccc(CNCC2CCNC2)cc1OCc1ccc(Cl)cc1Br` (stereo not drawn) [Example 148], the activity at 25 µM is at most 10%. Still for that read-out and setting: the figure for `Clc1ccc(C#Cc2cccc(CNCC3CNC3)c2)c(Br)c1` [Example 149, N-(azetidin-3-ylmethyl)-1-[3-[2-(2-bromo-4-chlorophenyl)ethynyl]phenyl]methanamine] is at most 10%; for `Clc1ccc(C#Cc2cccc(CNCC3CCNC3)c2)c(Br)c1` (stereo not drawn) [Example 150] it is at most 10%. Still for that read-out and setting: the figure for `Clc1cc(/C=C/c2ccc(Cl)cc2Br)cc(CNCC2CCNC2)c1` (stereo not drawn) [Example 157] is at most 10%; for `Clc1ccc(CNc2cccc(CNCC3CNC3)c2)c(Br)c1` [Example 158, 3-[(azetidin-3-ylmethylamino)methyl]-N-[(2-bromo-4-chloro-phenyl)methyl]aniline] it is at most 10%; for `Clc1cc(/C=C/c2ccc(Cl)cc2Br)cc(CNCC2CNC2)c1` [Example 159] it is at most 10%. The same measure, in the same setting: the figure for `CC(C)Oc1cc(CNCC2CCNC2)cc(OCc2ccc(Cl)cc2Br)c1` (stereo not drawn) [Example 163] is at most 10%. Take `Clc1ccc(/C=C/c2cccc(CCNCC3CCNC3)c2)c(Br)c1` (stereo not drawn) [Example 164]: the activity at 25 µM is at most 10%. On the same count and under the same terms, for `Clc1ccc(/C=C/c2cccc(CCNCC3CNC3)c2)c(Br)c1` [Example 165, N-(azetidin-3-ylmethyl)-2-[3-[(E)-2-(2-bromo-4-chloro-phenyl)vinyl]phenyl]ethanamine] the value was at most 10%; for `Clc1ccc(C=CCc2cccc(CNCC3CCNC3)c2)c(Br)c1` (stereo not drawn) [Example 169], at most 10%. Same read-out and setting: the figure for `N[C@@H]1CN[C@@H](CNCc2cccc(/C=C/c3ccc(Cl)cc3Br)c2)C1` [Example 171] is at most 10%; for `N[C@@H]1CN[C@@H](CNCc2cccc(OCc3ccc(Cl)cc3Br)c2)C1` [Example 172] it is at most 10%; for `Clc1ccc(COCc2cccc(CNCC3CCNC3)c2)c(Br)c1` (stereo not drawn) [Example 174] it is at most 10%.

In the case of `N[C@@H]1CN[C@@H](CNCc2cc(Cl)cc(OCc3ccc(Cl)cc3Br)c2)C1` [Example 175], the activity at 25 µM is at most 10%. In the case of `Clc1ccc(COc2cccc(CNCC3CCNC3)c2)c(Cl)c1` (stereo not drawn) [Example 176], the activity at 25 µM was at most 10%. On the same count and under the same terms, the figure for `C=CCOc1cc(/C=C/c2ccc(Cl)cc2Br)cc(CNCC2CCNC2)c1` (stereo not drawn) [Example 178] is at most 10%; for `C=CCOc1cc(/C=C/c2ccc(Cl)cc2Br)cc(CNCC2CNC2)c1` [Example 180] it is at most 10%; for `Clc1ccc(/C=C/c2cc(CNCC3CCNC3)cc(OCc3ccccc3)c2)c(Br)c1` (stereo not drawn) [Example 181] it is at most 10%. Regarding `CC(C)COc1cc(/C=C/c2ccc(Cl)cc2Br)cc(CNCC2CCNC2)c1` (stereo not drawn) [Example 182], the activity at 25 µM was at most 10%. Same read-out and setting: for `C=CCOc1cc(CNCC2CNC2)cc(CSc2ccc(Cl)cc2C(F)(F)F)c1` [Example 183] the value was at most 10%; for `C=CCOc1cc(CNCC2CCNC2)cc(CSc2ccc(Cl)cc2C(F)(F)F)c1` (stereo not drawn) [Example 184], at most 10%.

As to `Clc1ccc(/C=C/c2ccc(Cl)cc2OCCCNCC2CCNC2)c(Br)c1` (stereo not drawn) [Example 185], the activity at 25 µM was at most 10%. With `Clc1ccc(/C=C/c2cc(Cl)ccc2OCCCNCC2CCNC2)c(Br)c1` (stereo not drawn) [Example 186], the activity at 25 µM was at most 10%. Same read-out and setting: the figure for `Clc1ccc(/C=C/c2ccc(Cl)cc2OCCCNCC2CNC2)c(Br)c1` [Example 187] is at most 10%; for `Clc1cc(/C=C/c2ccc(Cl)cc2Br)cc(OCCCNCC2CNC2)c1` [Example 188] it is at most 10%.

Take `Clc1cc(/C=C/c2ccc(Cl)cc2Br)cc(OCCCNCC2CCNC2)c1` (stereo not drawn) [Example 189]: the activity at 25 µM was at most 10%.

Consider `CC(C)COc1cc(/C=C/c2ccc(Cl)cc2Br)cc(CNCC2CNC2)c1` [Example 190], for which the activity at 25 µM is at most 10%.

`NCC1CCC(CNCc2cccc(/C=C/c3ccc(Cl)cc3Br)c2)N1` (stereo not drawn) [Example 191]: the activity at 25 µM was at most 10%. On the same count and under the same terms, the figure for `NCC1CCC(CNCc2cc(Cl)cc(OCc3ccc(Cl)cc3Br)c2)N1` (stereo not drawn) [Example 193] is at most 10%.

The same test, now with this note: Escherichia coli, ATCC25922, compound at 50 μM; minocycline 0.25 μg/mL; OD625 23 h minus 1 h; read-out: residual growth of E. coli ATCC25922 (% of uninhibited control) with minocycline.
On to `[O-][S+](Cc1ccc(Cl)cc1Br)c1cccc(CNCC2CCNC2)c1` (stereo not drawn) [Example 137, 1-[3-[(2-bromo-4-chloro-phenyl)methylsulfinyl]phenyl]-N-(pyrrolidin-3-ylmethyl)methanamine], for which the activity at 50 µM was at most 50%.

Take `O=S(=O)(Cc1ccc(Cl)cc1Br)c1ccc(CNCC2CNC2)cc1` [Example 138]: the activity at 50 µM is at most 50%.
